The numbers were not newly measured in patent US10300101B2, “Methods and compositions for enhancing or maintaining fertility” (Quality IP Holdings, LLC, priority 2012, dated 2019), which cites them from elsewhere.

The subject of data set [1] is hGH levels.
Data set [2] deals with hGH levels. The following applies: subcutaneous injection of 0.06 IU in hGH deficient subjects.

For `N=C(N)NCCC[C@H](N)C(=O)O` [arginine], the “elevation of serum hGH levels” value with hGH levels [1] (30 g intravenous, in males) was 8.6 fold. In the data set on hGH levels [1] (intravenous infusion of 183 mg/kg body weight in females), the “increase in hGH levels” value was over 20 fold.

As for “hGH: human growth hormone given by subcutaneous injection to hGH deficient subjects”, the “mean levels of hGH reached” value with hGH levels [2] is recorded as 0.4 ng/mL.
